Measurements reported in patent US20220144840A1, “HETEROCYCLIC COMPOUNDS AND THEIR USE IN THE TREATMENT OF AMYLOID-RELATED DISEASES” (D.E. Shaw Research, LLC, priority 2019, published 2022).

These molecules were tested against T1, Beta-Amyloid (1-42), human (Homo sapiens, UniProt P05067) (assay: Thioflavin T (ThT) Beta-Amyloid (1-42) Aggregation Assay). Conditions: 8 μM Beta-Amyloid (1-42), 50 μM ThT dye, 37° C., slope of fluorescence time course; read-out: IC50 for inhibiting amyloids.
T1 construct: Component B: Beta-Amyloid (1-42), human, 0.25 mg×2, lyophilized;; purchased AnaSpec AS-72214
T1 sequence (P05067 672-713 limits assumed): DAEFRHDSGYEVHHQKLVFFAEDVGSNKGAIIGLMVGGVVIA
Assay type: biochemical
Protocol: This assay is used to evaluate the disclosed compounds' activities for inhibiting amyloids.
Thioflavin T (ThT) Beta-Amyloid (1-42) Aggregation Assay Protocol
SensoLyte Thioflavin T Beta-Amyloid (1-42) Aggregation Kit was used (AnaSpec Cat #AS-72214), which includes the following components:
Component A: Assay Buffer (Buffer components are not disclosed);
Component B: Beta-Amyloid (1-42), human, 0.25 mg×2, lyophilized;
Component C: 20 mM ThT solution; and
Component D: 20 mM Phenol Red (Control Inhibitor).
The following buffer was used: 0.005% Tween 20, Assay Buffer from Kit (Component A), and 1% DMSO (final including carryover from compounds).
The final reaction conditions include 8 μM Beta-Amyloid (1-42) and 50 μM ThT dye.
Corning cat #3573, Non-Treated, Black 384-well plate was used as assay plate.
Morin (Sigma Cat #: M4008-2G) was used as control inhibitor.
The reaction procedure is as follows: • 1. Prepare 2×ThT solution in Reaction Buffer; keep in the dark; • 2. Deliver 10 μl/well of 2×ThT solution into the wells; • 3. Prepare 2× Beta-Amyloid solution in Reaction Buffer in polypropylene tube, sonicate for 5 min; keep on ice until use; • 4. Deliver compounds in DMSO into the ThT solution by Acoustic technology (Echo550; nanoliter range), no pre-incubation; • 5. Immediately after compound addition, deliver 10 μL/well of Beta-Amyloid solution into the reaction well, buffer into “No peptide” wells instead; • 6. Immediately start measuring fluorescence intensity in EnVision, set at 37° C., (Ex/Em=450/485 nm) as a time-course measurement every 5 min (30 sec shaking between each read) for 3 hours; • 7. Analyze data by taking slope (signal/time) of linear portion (typically 5 to 45 min) of measurement (therefore time period taken for slope for analysis is different for each target); and • 8. Slope is calculated by using Excel, and curve fits are performed using Prism software.

Question: For `Clc1ccc2nc(SCc3cn4cc(Cl)ccc4n3)[nH]c2c1` [Compound 1, 6-chloro-2-[([6-chloroimidazo[1,2-a]pyridin-2-yl]methyl)sulfanyl]-1H-1,3-benzodiazole], which IC50 is on record?
Answer: < 100 µM

Question: How did the IC50 turn out when `O=[N+]([O-])c1ccc2nc(SCc3nc4ccc(Cl)cn4c3Br)[nH]c2c1` [Compound 2, 2-[([3-bromo-6-chloroimidazo[1,2-a]pyridin-2-yl]methyl)sulfanyl]-6-nitro-1H-1,3-benzodiazole] was run?
Answer: < 200 µM

Question: For `Cn1c(CSc2nc3ncccn3n2)nc2cc(Cl)ccc21` [Compound 3, 5-chloro-1-methyl-2-([[1,2,4]triazolo[1,5-a]pyrimidin-2-ylsulfanyl]methyl)-1,3-benzodiazole], which IC50 is on record?
Answer: < 200 µM

Question: `CCn1c(SCc2cn3cc(C)ccc3n2)nc2ccccc21` [Compound 4, 1-ethyl-2-[([6-methylimidazo[1,2-a]pyridin-2-yl]methyl)sulfanyl]-1,3-benzodiazole] was tested. Which IC50 did it give?
Answer: < 100 µM

Question: Which IC50 does the source give for `Cc1ccc2nc(CSc3nc4ccc(Cl)cc4[nH]3)cn2c1` [Compound 5] here?
Answer: < 200 µM
